Test results: ChEMBL document CHEMBL1201862, “PubChem BioAssay data set” (2004)
Active and inactive are the calls of the source.

How the values were obtained:
[1] = HepG2 cell cytotoxicity, dose response, cytotoxicity control, cherry-picked samples (AID 1159577); format: functional, cell-based
[2] = P. falciparum Dd2 growth inhibitors, dose response, SYBR Green, cherry-picked samples (AID 1159567); format: functional, cell-based
[3] = cytotoxicity in OVCAR8 ovarian cancer cells, dose response, PAX8 project, cell-based, plate reader, dry powder samples (AID 743197); format: functional; details: OVCAR-8
[4] = IGROV1 ovarian cancer cell cytotoxicity, dose response, PAX8 inhibitor project, plate reader, dry powder samples (AID 743043); format: functional, cell-based; details: IGROV-1
[5] = NIH:OVCAR-3 ovarian cancer cell cytotoxicity, dose response, PAX8 inhibitor project, plate reader, dry powder samples (AID 743044); format: functional, cell-based
[6] = A2780 ovarian cancer cell cytotoxicity, dose response, cytotoxicity control, plate reader, dry powder samples (AID 743046); format: functional, cell-based
Paired box protein Pax-8 = Paired box protein Pax-8 (Homo sapiens, UniProt Q06710); assay: inhibitors of PAX8-driven TPO luciferase reporter, dose response, RMG-I cells, cherry-pick (AID 687027); format: functional, cell-based;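 note: luciferase reporter driven by Pax8 target thyroperoxidase promoter measured by SteadyGlo luminescence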
Cytochrome P450 3A4 = Cytochrome P450 3A4 (Homo sapiens, UniProt P08684); details: Potency;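 note: confirmatory qHTS run detecting inhibitors and substrates of CYP3A4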
[7] = inhibitors of intracellular T. cruzi replication, confirmation, NIH3T3 host cells, beta-gal luminescence (AID 2044); format: functional, cell-based;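 note: intracellular parasites grown in NIH/3T3 mouse fibroblasts as host cells; luminescent beta-galactosidase reporter signal from transgenic T. cruzi replicating inside host cells; inhibitors lower the luminescence signal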
[8] = cytotoxicity toward NIH3T3 fibroblasts, dose response, counter-screen, cell-based, ATP luminescence, mouse fibroblasts (AID 2010); format: functional;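 note: cells exposed to compound for about 90 hours before reading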
[9] = non-specific cell cytotoxicity, dose response, cytotoxicity control for PAX8 inhibitor project, plate reader, dry powder samples (AID 743021); format: functional, cell-based
Estrogen receptor beta [10] = target: T1, Estrogen receptor beta (Homo sapiens, UniProt Q92731); assay: ERβ–SRC-3 coactivator interaction inhibitors, confirmation, orthogonal assay, biochemical, ELISA, streptavidin-HRP readout (AID 1060)
Estrogen receptor beta [11] = target: T1, Estrogen receptor beta
Bcl-2-like protein 10 = target: T2, Bcl-2-like protein 10 (Homo sapiens, UniProt Q9HD36); assay: displacers of TR3 peptide from Bcl-B, primary screen, selectivity assay for Bfl-1 inhibitor project, biochemical, fluorescence polarization, FITC-TR3 peptide (AID 748);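 note: fluorescence polarization from a fluorescein-labelled TR3 peptide binding purified Bcl-B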
T2 sequence (Q9HD36 whole entry): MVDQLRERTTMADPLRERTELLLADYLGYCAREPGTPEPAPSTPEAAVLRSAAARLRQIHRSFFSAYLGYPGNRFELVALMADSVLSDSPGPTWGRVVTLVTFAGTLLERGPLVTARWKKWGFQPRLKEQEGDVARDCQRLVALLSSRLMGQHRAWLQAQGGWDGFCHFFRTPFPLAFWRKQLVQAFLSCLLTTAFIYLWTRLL

Prothrombin = Prothrombin (Homo sapiens, UniProt P00734); assay: Thrombin 1536 HTS Dose Response Confirmation. [Related pubchem assays: 1046 (Thrombin 1536 HTS; hits were confirmed in this assay)]; format: functional
Vero [12] = assay: host cell cytotoxicity of antiviral hits, dose response, cytotoxicity control for West Nile virus antiviral project, secondary assay (AID 1650); format: functional; details: Chlorocebus sabaeus
[13] = Shn3 3'UTR reporter inhibitors, dose response, cell-based, Clone20 osteoblasts, firefly luciferase, cherry-picked (AID 624132); format: functional;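 note: firefly luciferase luminescence from reporter carrying the Shn3 3'UTR in osteoblasts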
Vero [14] = assay: cells; format: functional; details: Chlorocebus sabaeus
[15] = control 3'UTR Renilla luciferase suppression, dose response, counter-screen for Shn3 inhibitor project, cell-based, Clone20-Shn3RL, cherry-picked (AID 624133); format: functional
Large T antigen = Large T antigen (Simian virus 40, UniProt P03070); format: functional, Betapolyomavirus macacae;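 note: Confirmatory-stage PubChem screen for compounds that inhibit SV40 T antigen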
[16] = target: T3, Histone-lysine N-methyltransferase NSD2 (Homo sapiens, UniProt O96028); format: biochemical
T3 sequence (O96028 whole entry): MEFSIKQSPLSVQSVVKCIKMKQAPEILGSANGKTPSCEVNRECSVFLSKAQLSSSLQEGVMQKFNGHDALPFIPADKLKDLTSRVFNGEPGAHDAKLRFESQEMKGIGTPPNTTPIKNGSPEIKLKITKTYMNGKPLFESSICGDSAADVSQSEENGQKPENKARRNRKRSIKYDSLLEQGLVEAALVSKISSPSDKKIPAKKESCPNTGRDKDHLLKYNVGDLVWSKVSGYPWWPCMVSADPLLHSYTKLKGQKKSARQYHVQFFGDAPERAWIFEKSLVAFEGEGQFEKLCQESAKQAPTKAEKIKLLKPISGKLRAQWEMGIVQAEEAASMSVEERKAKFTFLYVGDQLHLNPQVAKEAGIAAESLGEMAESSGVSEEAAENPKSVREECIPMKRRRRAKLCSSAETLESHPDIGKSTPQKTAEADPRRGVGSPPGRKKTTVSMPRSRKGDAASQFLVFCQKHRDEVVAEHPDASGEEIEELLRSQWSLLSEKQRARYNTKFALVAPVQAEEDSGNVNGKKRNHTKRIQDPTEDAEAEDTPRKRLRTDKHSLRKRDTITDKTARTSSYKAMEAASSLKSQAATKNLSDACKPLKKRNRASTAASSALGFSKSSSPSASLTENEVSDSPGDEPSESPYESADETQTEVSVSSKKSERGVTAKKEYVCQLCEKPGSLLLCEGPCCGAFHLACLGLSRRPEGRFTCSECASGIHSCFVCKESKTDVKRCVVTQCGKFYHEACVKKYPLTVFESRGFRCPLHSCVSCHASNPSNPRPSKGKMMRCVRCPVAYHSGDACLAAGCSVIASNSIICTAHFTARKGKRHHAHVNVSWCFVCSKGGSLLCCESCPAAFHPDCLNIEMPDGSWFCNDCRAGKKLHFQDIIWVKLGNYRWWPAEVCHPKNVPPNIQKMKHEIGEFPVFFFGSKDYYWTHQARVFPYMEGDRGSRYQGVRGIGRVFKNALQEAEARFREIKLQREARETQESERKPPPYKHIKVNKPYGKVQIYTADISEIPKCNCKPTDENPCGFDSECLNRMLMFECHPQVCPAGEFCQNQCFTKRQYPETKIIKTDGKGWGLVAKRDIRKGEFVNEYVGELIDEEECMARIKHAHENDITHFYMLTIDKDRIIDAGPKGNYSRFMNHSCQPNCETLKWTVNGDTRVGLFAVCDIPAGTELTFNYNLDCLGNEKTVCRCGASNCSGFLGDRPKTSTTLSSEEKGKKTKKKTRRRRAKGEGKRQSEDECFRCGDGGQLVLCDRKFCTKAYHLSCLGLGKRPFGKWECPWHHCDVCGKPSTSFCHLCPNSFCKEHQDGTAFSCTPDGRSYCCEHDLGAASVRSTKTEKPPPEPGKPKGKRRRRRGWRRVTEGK

[17] = target: Induced myeloid leukemia cell differentiation protein Mcl-1 (Homo sapiens, UniProt Q07820); format: functional
[18] = target: Dual specificity tyrosine-phosphorylation-regulated kinase 1A (Rattus norvegicus, UniProt Q63470); format: biochemical, Homo sapiens
[19] = target: T4, Acyl-homoserine lactone acylase PvdQ (Pseudomonas aeruginosa (strain LESB58), UniProt Q9I194); assay: P. aeruginosa PvdQ acylase inhibitors, dose response, biochemical, fluorescence, plate reader and imaging, cherry-picks (AID 493231)
T4 sequence (Q9I194 whole entry): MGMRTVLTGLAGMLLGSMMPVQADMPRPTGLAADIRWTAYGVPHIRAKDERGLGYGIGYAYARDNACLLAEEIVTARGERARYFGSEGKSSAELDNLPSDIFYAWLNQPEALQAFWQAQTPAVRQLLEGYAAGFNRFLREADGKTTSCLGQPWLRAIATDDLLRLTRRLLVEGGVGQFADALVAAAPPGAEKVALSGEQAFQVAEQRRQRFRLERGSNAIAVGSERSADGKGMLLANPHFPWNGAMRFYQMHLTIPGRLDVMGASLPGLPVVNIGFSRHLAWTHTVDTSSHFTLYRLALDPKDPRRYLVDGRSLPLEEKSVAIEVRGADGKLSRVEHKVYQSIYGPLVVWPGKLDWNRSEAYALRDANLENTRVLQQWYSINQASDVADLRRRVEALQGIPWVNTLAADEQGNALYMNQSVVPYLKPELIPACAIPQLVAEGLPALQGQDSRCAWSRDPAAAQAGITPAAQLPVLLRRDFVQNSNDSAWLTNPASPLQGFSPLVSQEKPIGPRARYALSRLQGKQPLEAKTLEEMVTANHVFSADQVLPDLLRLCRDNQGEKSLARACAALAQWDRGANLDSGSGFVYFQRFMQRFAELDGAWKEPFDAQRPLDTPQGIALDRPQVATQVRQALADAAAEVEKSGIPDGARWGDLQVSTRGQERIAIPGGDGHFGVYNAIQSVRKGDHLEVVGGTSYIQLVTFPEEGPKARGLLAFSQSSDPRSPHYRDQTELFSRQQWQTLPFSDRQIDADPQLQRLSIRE

Sequence of Paired box protein Pax-8 (Q06710 whole entry): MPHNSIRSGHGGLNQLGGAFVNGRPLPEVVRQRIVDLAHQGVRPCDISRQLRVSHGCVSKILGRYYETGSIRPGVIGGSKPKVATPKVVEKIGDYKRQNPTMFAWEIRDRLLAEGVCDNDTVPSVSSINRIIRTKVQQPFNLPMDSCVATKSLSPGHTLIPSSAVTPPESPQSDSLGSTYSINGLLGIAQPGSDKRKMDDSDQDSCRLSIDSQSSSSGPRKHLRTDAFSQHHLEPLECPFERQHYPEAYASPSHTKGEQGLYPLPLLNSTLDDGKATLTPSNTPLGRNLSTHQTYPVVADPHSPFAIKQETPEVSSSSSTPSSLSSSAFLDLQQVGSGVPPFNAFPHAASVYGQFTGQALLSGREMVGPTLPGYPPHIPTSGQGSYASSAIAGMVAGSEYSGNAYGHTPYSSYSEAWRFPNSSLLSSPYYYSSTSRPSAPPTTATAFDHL
T1 sequence (Q92731 whole entry): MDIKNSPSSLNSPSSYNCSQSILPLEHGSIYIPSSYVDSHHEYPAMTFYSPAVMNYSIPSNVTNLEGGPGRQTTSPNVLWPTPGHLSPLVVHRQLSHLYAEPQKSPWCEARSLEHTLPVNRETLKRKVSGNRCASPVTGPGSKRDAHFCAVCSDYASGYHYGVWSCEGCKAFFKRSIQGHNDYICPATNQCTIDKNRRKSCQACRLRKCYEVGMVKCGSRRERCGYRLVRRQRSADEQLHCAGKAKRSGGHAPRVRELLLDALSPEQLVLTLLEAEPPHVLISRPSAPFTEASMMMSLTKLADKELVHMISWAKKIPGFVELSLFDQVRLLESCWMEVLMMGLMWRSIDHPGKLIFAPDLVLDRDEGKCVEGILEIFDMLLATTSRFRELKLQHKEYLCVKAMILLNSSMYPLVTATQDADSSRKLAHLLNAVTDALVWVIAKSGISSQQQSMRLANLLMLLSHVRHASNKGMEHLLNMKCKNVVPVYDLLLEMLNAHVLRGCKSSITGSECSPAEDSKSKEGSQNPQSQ
Sequence of Cytochrome P450 3A4 (P08684 whole entry): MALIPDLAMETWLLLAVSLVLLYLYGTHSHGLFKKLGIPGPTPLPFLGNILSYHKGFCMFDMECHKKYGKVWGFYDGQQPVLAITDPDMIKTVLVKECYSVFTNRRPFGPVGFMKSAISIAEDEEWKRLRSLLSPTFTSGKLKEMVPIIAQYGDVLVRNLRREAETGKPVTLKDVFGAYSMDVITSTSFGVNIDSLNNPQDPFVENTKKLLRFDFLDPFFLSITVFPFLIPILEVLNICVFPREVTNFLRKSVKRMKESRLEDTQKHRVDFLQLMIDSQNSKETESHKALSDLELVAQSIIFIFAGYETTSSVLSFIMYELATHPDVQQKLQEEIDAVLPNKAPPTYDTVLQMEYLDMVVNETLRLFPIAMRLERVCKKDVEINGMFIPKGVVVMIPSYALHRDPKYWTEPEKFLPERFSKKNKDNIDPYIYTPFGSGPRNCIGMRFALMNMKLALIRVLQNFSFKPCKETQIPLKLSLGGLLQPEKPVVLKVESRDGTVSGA
Sequence of Induced myeloid leukemia cell differentiation protein Mcl-1 (Q07820 whole entry): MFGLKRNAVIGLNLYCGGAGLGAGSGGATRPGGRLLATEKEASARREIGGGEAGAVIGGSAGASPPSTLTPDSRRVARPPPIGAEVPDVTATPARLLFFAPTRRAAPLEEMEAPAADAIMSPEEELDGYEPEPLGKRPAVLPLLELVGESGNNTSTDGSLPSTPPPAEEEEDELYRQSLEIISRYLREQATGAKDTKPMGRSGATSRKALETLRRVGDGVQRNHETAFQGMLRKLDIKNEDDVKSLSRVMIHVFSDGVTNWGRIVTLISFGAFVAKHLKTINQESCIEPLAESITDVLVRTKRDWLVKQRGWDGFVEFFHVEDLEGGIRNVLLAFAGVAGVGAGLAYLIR
Sequence of Large T antigen (P03070 whole entry): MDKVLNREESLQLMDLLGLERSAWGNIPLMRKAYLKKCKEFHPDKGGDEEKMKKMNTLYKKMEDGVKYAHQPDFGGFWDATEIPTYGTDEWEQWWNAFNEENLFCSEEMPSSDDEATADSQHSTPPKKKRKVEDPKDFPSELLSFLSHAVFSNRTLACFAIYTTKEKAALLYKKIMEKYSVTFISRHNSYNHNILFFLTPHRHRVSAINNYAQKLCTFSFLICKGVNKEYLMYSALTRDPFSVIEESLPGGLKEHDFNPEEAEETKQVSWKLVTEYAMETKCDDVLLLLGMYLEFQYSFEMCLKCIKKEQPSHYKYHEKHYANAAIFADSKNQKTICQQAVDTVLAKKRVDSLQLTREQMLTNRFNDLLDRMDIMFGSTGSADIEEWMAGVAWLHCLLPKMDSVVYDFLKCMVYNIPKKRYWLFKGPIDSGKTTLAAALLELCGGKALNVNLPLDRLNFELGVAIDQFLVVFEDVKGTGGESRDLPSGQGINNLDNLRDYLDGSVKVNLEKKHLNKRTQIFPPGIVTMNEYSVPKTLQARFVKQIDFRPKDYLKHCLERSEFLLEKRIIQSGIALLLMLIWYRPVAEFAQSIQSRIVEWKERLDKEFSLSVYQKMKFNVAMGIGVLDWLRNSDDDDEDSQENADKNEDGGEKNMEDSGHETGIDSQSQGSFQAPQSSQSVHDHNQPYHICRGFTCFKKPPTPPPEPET

For `O=C(Nc1cc(F)ccc1F)N1CCCCN2[C@@H](CO)[C@@H](c3ccc(-c4ccccc4)cc3)[C@@H]2C1`, the AC50 [1] was 9.99 µM (active) and the AC50 [2] was 2.56 µM (active).

In the case of `COc1ccc(S(=O)(=O)Nc2ccc3c(c2)C(=O)N([C@H](C)CO)C[C@H](C)[C@@H](CN(C)S(=O)(=O)c2ccc(F)cc2)OCCCC[C@H](C)O3)cc1`, the AC50 [3] was 22.9 µM (active), the AC50 [4] was 37.1 µM (active) and the AC50 [5] was 12.5 µM (active). The AC50 [6] was 34.7 µM (active) and the AC50 (Paired box protein Pax-8) was 3.96 µM (active).

With `C[C@@H]1CCCCO[C@H](CN(C)S(=O)(=O)c2ccc(Cl)cc2)[C@@H](C)CN([C@@H](C)CO)C(=O)c2cc(NS(=O)(=O)c3ccc(F)cc3)ccc2O1` the AC50 [3] was 62.8 µM (active), the AC50 [5] was 39 µM (active) and the AC50 [6] was 11.5 µM (active). For the same compound, the AC50 (Paired box protein Pax-8) was 7.67 µM (active).

In the case of `O=S(=O)(c1ccc(F)cc1)N1C[C@@H]2N[C@H](C1)[C@@H]2c1ccc(-c2ccc(F)cc2)cc1`, the AC50 [1] was 11 µM (active) and the AC50 [2] was 7.37 µM (active).

For `COC(=O)NC(c1cccc(C)c1)C(C(C)=O)C(=O)OC` (stereo unspecified), the AC50 (Cytochrome P450 3A4) was 7.94 µM (inconclusive).

For `COc1ccc(/C=C2\CN(Cc3ccccc3)C/C(=C\c3ccc(OC)cc3OC)C2=O)c(OC)c1`, the EC50 [7] was 1.83 µM (active), the EC50 [8] was 9.01 µM (active) and the AC50 (Paired box protein Pax-8) was 10.4 µM (active). The AC50 [9] was 42.3 µM (active).

In the case of `Cc1cc2n(c1)CCn1c(C)ccc1-2`, the IC50 (Estrogen receptor beta [10]) was 3.06 µM (not active) and the IC50 (Estrogen receptor beta [11]) was 3.91 µM (active).

For `COCc1cc(C2SCC(=O)Nc3c2c(O)nn3C(C)C)ccc1OC` (stereo unspecified), the IC50 (Bcl-2-like protein 10) was > 100 µM (inactive).

With `COc1ccc(C#Cc2ccc([C@@H]3[C@H](CO)N4CCCCN(Cc5ccccc5F)C[C@@H]34)cc2)cc1` the AC50 [1] was 9.38 µM (active) and the AC50 [2] was 0.756 µM (active).

For `CC(Nc1nc(O)c2c(ncn2Cc2ccccc2)n1)C(=O)O` (stereo unspecified), the IC50 (Prothrombin) was > 50 µM (not active).

With `COc1ccc(S(=O)(=O)N2CCOCC2)cc1NC(=O)COC(=O)c1ccc(C)s1` the IC50 (Prothrombin) was 0.408 µM (active).

With `Cc1ccc(Cn2ccc(NC(=O)c3nn(C)cc3[N+](=O)[O-])n2)cc1` the CC50 (Vero [12]) was 11.6 µM (active), the AC50 [13] was 4.09 µM (active) and the CC50 (Vero [14]) was 13.8 µM (active). For the same compound, the AC50 [15] was 27.3 µM (active).

In the case of `Cc1ccc(C2=NC(=O)/C(=C/c3cc(O)c(O)c(Br)c3)S2)cc1`, the IC50 (Large T antigen) was 4.91 µM (active), the AC50 [16] was 3.45 µM (active) and the IC50 [17] was 767 nM (active).

In the case of `CC(C)=CCC/C(C)=C/CN1C(=O)N(c2ccc(F)cc2)[C@H]2C[C@@H](c3ccccc3)[C@@H](C)[C@@H](C(=O)N3CCOCC3)C[C@H]21`, the AC50 (Paired box protein Pax-8) was 2.66 µM (active) and the AC50 [9] was 42 µM (active).

With `c1cnc2ccc(-c3ccc4ncccc4c3)cc2c1` the AC50 [18] was 189 nM (active) and the AC50 [19] was 10.7 µM (active).

In the case of `COc1ccc(N(C(=O)c2ccco2)S(=O)(=O)c2cccc([N+](=O)[O-])c2)cc1`, the IC50 (Prothrombin) was 2.18 µM (active).

With `Cc1cc(-c2ccc(/N=N/c3cc(S(=O)(=O)O)c4ccccc4c3N)c(C)c2)ccc1/N=N/c1cc(S(=O)(=O)O)c2ccccc2c1N` the AC50 (Cytochrome P450 3A4) was 25.1 µM (inconclusive).

With `CC(=O)Nc1ccc(OC(=O)CC2SC(=O)NC2=O)cc1` (stereo unspecified) the IC50 (Estrogen receptor beta [10]) was < 0.023 µM (not active), the IC50 (Estrogen receptor beta [11]) was 8.53 µM (active) and the IC50 (Bcl-2-like protein 10) was > 100 µM (inactive).
